Several values for one entry are separate records, joined by “and”; a condition that tells them apart may be missing. Equal entries are not always repeated.
System: 287954-098-R-J1 tumor spheroid viability
Assay: Anticancer human tumor 287954-098-R-J1 patient-derived Ewing sarcoma cell line growth inhibition
Settings: spheroids with HUVEC and MSC; for viability, T/C: stronger effect = lower value
Text: Multicellular complex tumor spheroid response to DNA repair inhibitors in combination with DNA-damaging drugs
This study explores the anticancer activities of DNA-damaging drugs and inhibitors of DNA damage repair, both as single agents and in combinations. Complex tumor spheroids comprised of malignant cells, endothelial cells and mesenchymal stem cells served as an in vitro model for human solid tumors. This model system incorporates physiologically relevant features and patient-derived or established malignant cell lines with clinically relevant genetic alterations from many tumor types. Twenty-six patient-derived or established malignant cell lines were evaluated representing sarcoma, melanoma, small cell lung cancer (SCLC), non-small cell lung cancer (NSCLC), as well as bladder, ovarian and pancreatic cancers. The concentration ranges selected for each drug and investigational agent were based upon clinically achievable concentrations if the clinical Cmax of the agent was known.
Compounds. The drugs and compounds olaparib (NSC753686), talazoparib (NSC767125), berzosertib (NSC777718), elimusertib (NSC800525), nedisertib (NSC802822), VX-984 (NSC792969), AZD-1390 (NSC803789), temozolomide (NSC362856), topotecan (NSC609699), trabectedin (NSC813783), staurosporine (NSC755774), and gemcitabine (NSC613327) were obtained from the National Cancer Institute (NCI) Developmental Therapeutics Program Chemical Repository. The FDA-approved anticancer drug set is available from the Developmental Therapeutics Program at https://dtp.cancer.gov/organization/dscb/obtaining/available_plates.htm. […] The stock solutions were prepared in dimethyl sulfoxide (DMSO, Sigma-Aldrich, St. Louis, MO, cat. D2650) at 400-fold the tested concentration and stored at -70 degrees C. Prior to their use, the stock solutions were diluted in fresh medium and the final DMSO concentration in the assay was 0.25% (v/v). All drugs and investigational agents were tested over a range starting from a high concentration at or near the clinical Cmax and decreasing in half-log increments. If the clinical Cmax for an agent had not been determined, the highest concentration tested was 10 microM.
Cell Lines. The patient-derived cancer cell (PDC) lines: 156681-154-R-J1-PDC, 283228-195-R-J1-PDC, 287954-098-R-J1-PDC, 292921-168-R-J2-PDC, 349418-098-R-PDC, 425362-245-T-J1-PDC, 556581-035-R-J1-PDC, and BL0293-F563-PDC were received from the NCI Patient-Derived Models Repository (PDMR, https://pdmr.cancer.gov). The established cell lines HS-SY-2 (RRID:CVCL_8719), MPNST, and SYO-1 (RRID:CVCL_7146) were obtained from the Sloan Kettering Institute. The alveolar soft parts sarcoma cell line ASPS-1 (RRID:CVCL_S738) was established at the NCI and grown from internal seed stocks. The following established cell lines were purchased from the American Type Culture Collection (ATCC, Manassas, VA): G-401 (ATCC, cat. CRL-1441, RRID:CVCL_0270), SW982 (ATCC, cat. HTB-93, RRID:CVCL_1734), VA-ES-BJ (ATCC, cat. CRL-2138, RRID:CVCL_1785), NCI-H719 (ATCC, cat. CRL-5837, RRID:CVCL_1582), NCI-H196 (ATCC, cat. CRL-5823, RRID:CVCL_1509), NCI-H841 (ATCC, cat. CRL-5845, RRID:CVCL_1595), NCI-H1618 (ATCC, cat. CRL-5879, RRID:CVCL_1480), NCI-H1876 (ATCC, cat. CRL-5902, RRID:CVCL_1503), DMS 114 (ATCC, cat. CRL-2066; RRID:CVCL_1174), NCI-H211 (ATCC, cat. CRL-5824; RRID:CVCL_1529), and SW 1271 (ATCC, cat. CRL-2177, RRID:CVCL_1716). The small cell lung cancer cell line COR-L88 was purchased from Sigma-Aldrich (cat. 92031917-1VL, RRID:CVCL_1141). The non-small cell lung cancer cell lines NCI-H226 (RRID:CVCL_1544) and NCI-H322M (RRID:CVCL_1557) were established at the NCI and grown from internal seed stocks. Pooled donor human umbilical vein endothelial cells (HUVEC, Lonza, cat. CC-2519) and human mesenchymal stem cells (hMSC, Lonza, cat. PT-2501) were purchased from Lonza (Walkersville, MD).
Cell Culture. All cells were maintained in an incubator at 37 degrees C and 5% CO2 with 95% humidity. […]
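Note: spheroids exposed to compound for 7 days before viability readout.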
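Throughout, for viability, T/C: luminescent signal taken as surrogate of viable cell content; 100% = DMSO vehicle control viability and lower means growth inhibition.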

## CC1COCCN1c1cc(-c2ccnn2C)c2ccnc(-c3ccn[nH]3)c2n1 (configuration not stated) + COc1cc2c(cc1O)CCNC21CSC2c3c(OC(C)=O)c(C)c4c(c3C(COC1=O)N1C(O)C3Cc5cc(C)c(OC)c(O)c5C(C21)N3C)OCO4
Curve of first compound, second compound 30 pM
  IC50: 74.6 nM
Curve of first compound, second compound 94.9 pM
  IC50: 48.3 nM
Curve of first compound, second compound 0.0003 µM
  IC50: < 31.6 nM
Curve of first compound, second compound 0.000949 µM
  IC50: < 31.6 nM
Curve of first compound, second compound 0.003 µM
  IC50: < 31.6 nM
Second compound 30 pM, first compound 0.0316 µM
  viability, T/C: 111%
Second compound 30 pM, first compound 0.1 µM
  viability, T/C: 28.8%
Second compound 30 pM, first compound 0.316 µM
  viability, T/C: 7.3%
Second compound 30 pM, first compound 1 µM
  viability, T/C: 4.7%
Second compound 30 pM, first compound 3.16 µM
  viability, T/C: 1.8%
Second compound 30 pM, first compound 10 µM
  viability, T/C: 2.96%
Second compound 94.9 pM, first compound 0.0316 µM
  viability, T/C: 73.7%
Second compound 94.9 pM, first compound 0.1 µM
  viability, T/C: 9.38%
Second compound 94.9 pM, first compound 0.316 µM
  viability, T/C: 3.08%
Second compound 94.9 pM, first compound 1 µM
  viability, T/C: 1.84%
Second compound 94.9 pM, first compound 3.16 µM
  viability, T/C: 1.08%
Second compound 94.9 pM, first compound 10 µM
  viability, T/C: 2.57%
Second compound 0.0003 µM, first compound 0.0316 µM
  viability, T/C: 2.38%
Second compound 0.0003 µM, first compound 0.1 µM
  viability, T/C: 1.69%
Second compound 0.0003 µM, first compound 0.316 µM
  viability, T/C: 1.1%
Second compound 0.0003 µM, first compound 1 µM
  viability, T/C: 0.7%
Second compound 0.0003 µM, first compound 3.16 µM
  viability, T/C: 0.69%
Second compound 0.0003 µM, first compound 10 µM
  viability, T/C: 0.94%
Second compound 0.000949 µM, first compound 0.0316 µM
  viability, T/C: 0.28%
Second compound 0.000949 µM, first compound 0.1 µM
  viability, T/C: 0.34%
Second compound 0.000949 µM, first compound 0.316 µM
  viability, T/C: 0.31%
Second compound 0.000949 µM, first compound 1 µM
  viability, T/C: 0.09%
Second compound 0.000949 µM, first compound 3.16 µM
  viability, T/C: 0.03%
Second compound 0.000949 µM, first compound 10 µM
  viability, T/C: 0.13%
Second compound 0.003 µM, first compound 0.0316 µM
  viability, T/C: 0.19%
Second compound 0.003 µM, first compound 0.1 µM
  viability, T/C: 0.19%
Second compound 0.003 µM, first compound 0.316 µM
  viability, T/C: 0.14%
Second compound 0.003 µM, first compound 1 µM
  viability, T/C: 0.12%
Second compound 0.003 µM, first compound 3.16 µM
  viability, T/C: 0.11%
Second compound 0.003 µM, first compound 10 µM
  viability, T/C: 0.22%

## Cc1cc(C)c(CNC(=O)c2cc(-c3ccc(CN4CCOCC4)cc3)cc3c2cnn3C2CCCC2)c(=O)[nH]1
Compound 0.0316 µM
  viability, T/C: 104% and 106% and 95.4%
Compound 0.1 µM
  viability, T/C: 95.6% and 106% and 114%
Compound 0.316 µM
  viability, T/C: 99.8% and 99.5% and 103%
Compound 1 µM
  viability, T/C: 102% and 97.1% and 101%
Compound 3.16 µM
  viability, T/C: 98.2% and 112% and 109%
Compound 10 µM
  viability, T/C: 113% and 108% and 114%
Curve of compound
  IC50: > 10000 nM

— PubChem BioAssay AID1845194 (Molecular Pharmacology Branch, DTP, NCI, 2023)
